Data taken from the RepoRT retention time repository.

Assay: A: acetonitrile + 0.1% formic acid + 10 mM ammonium formate; B: 5% water + 95% acetonitrile + 0.1% formic acid + 10 mM ammonium formate; gradient (min/%B) 0/10 2/10 22/100 27/100 27.1/10
Details: stereoisomer not certain

LC retention time | Structure (SMILES)
1.22 min | O=c1cc(CO)occ1O [Kojic acid]
3.56 min | O=C(O)c1cc(=O)c2ccccc2[nH]1 [Kynurenic acid]
5.85 min | O=C(O)C1CCCCN1 (stereo not drawn) [L(-)-Pipecolinic acid]
5.36 min | N[C@@H](Cc1c[nH]c2ccc(O)cc12)C(=O)O [L-5-Hydroxytryptophan]
7.92 min | Cn1cncc1CC(NC(=O)CCN)C(=O)O [L-Anserine]
7.48 min | NC(N)=NCCC[C@H](N)C(=O)O [L-Arginine]
6.65 min | NC(=O)C[C@H](N)C(=O)O [L-Asparagine]
6.22 min | C[N+](C)(C)C[C@H](O)CC(=O)[O-] [L-Carnitine]
7.75 min | NCCC(=O)NC(Cc1cnc[nH]1)C(=O)O [L-Carnosine]
6.76 min | NC(=O)NCCC[C@H](N)C(=O)O [L-Citrulline]
6.79 min | N[C@@H](CS(=O)(=O)O)C(=O)O [L-Cysteic acid]
8.16 min | N[C@@H](CSSC[C@H](N)C(=O)O)C(=O)O [L-Cystine]
6.06 min | N[C@@H](Cc1ccc(O)c(O)c1)C(=O)O [L-Dopa]
6.54 min | NC(=O)CC[C@H](N)C(=O)O [L-Glutamine]
8.69 min | NC(CCC(=O)NC(CSSCC(NC(=O)CCC(N)C(=O)O)C(=O)NCC(=O)O)C(=O)NCC(=O)O)C(=O)O [L-Glutathione oxidized]
7.03 min | NC(CCC(=O)NC(CS)C(=O)NCC(=O)O)C(=O)O [L-Glutathione reduced]
7.73 min | N[C@@H](Cc1cnc[nH]1)C(=O)O [L-Histidine]
7.05 min | N[C@H](CO)Cc1cnc[nH]1 [L-Histidinol]
7.39 min | NC(N)=NCCCC[C@H](N)C(=O)O [L-Homoarginine]
6.59 min | NC(=O)NCCCC[C@H](N)C(=O)O [L-Homocitrulline]
7.57 min | N[C@@H](CCSSCC[C@H](N)C(=O)O)C(=O)O [L-Homocystine]
6.32 min | N[C@@H](CCO)C(=O)O [L-Homoserine]
4.67 min | Nc1ccccc1C(=O)CC(N)C(=O)O [L-Kynurenine]
5.01 min | CC(C)C[C@H](N)C(=O)O [L-Leucine]

LC retention time | Structure (SMILES)
5.82 min | CC(C)C[C@H](N)C(=O)N[C@@H](C)C(=O)O [L-Leucyl-L-alanine]
7.67 min | NCCCC[C@H](N)C(=O)O [L-Lysine]
5.97 min | CSCC[C@H](N)C(=O)O [L-Methionine]
3.88 min | CN1CCCC1c1cccnc1 [L-Nicotine]
4.99 min | CCCC[C@H](N)C(=O)O [L-Norleucine]
5.65 min | CCC[C@H](N)C(=O)O [L-Norvaline]
4.83 min | N[C@@H](Cc1ccccc1)C(=O)O [L-Phenylalanine]
6.81 min | O=C1CC[C@@H](C(=O)O)N1 [L-Pyroglutamic acid]
6.56 min | N[C@@H](CO)C(=O)O [L-Serine]
6.22 min | C[C@@H](O)[C@H](N)C(=O)O [L-Threonine]
5.62 min | N[C@@H](Cc1ccc(O)cc1)C(=O)O [L-Tyrosine]
5.92 min | CC(C)[C@H](N)C(=O)O [L-Valine]
6.6 min | OCC1OC(OC2C(CO)OC(O)(CO)C2O)C(O)C(O)C1O (stereo not drawn) [Lactulose]
0.475 min | Cc1c(OCC(F)(F)F)ccnc1CS(=O)c1nc2ccccc2[nH]1 (stereo not drawn) [Lansoprazole]
0.455 min | CCCCCCCCCCCCOC(=O)c1cc(O)c(O)c(O)c1 [Lauryl gallate]
0.421 min | CC(=O)CCC(=O)O [Levulinic acid]
6.87 min | NCCCCC(NC(CCc1ccccc1)C(=O)O)C(=O)N1CCCC1C(=O)O (stereo not drawn) [Lisinopril]
0.433 min | CCOC(=O)N1CCC(=C2c3ccc(Cl)cc3CCc3cccnc32)CC1 [Loratadine]
0.419 min | CCC(C)C(=O)OC1CC(C)C=C2C=CC(C)C(CCC3CC(O)CC(=O)O3)C21 (stereo not drawn) [Lovastatin]
0.593 min | O=c1cc(-c2ccc(O)c(O)c2)oc2cc(O)cc(O)c12 [Luteolin]
6.59 min | OCC(O)C(O)C(OC1OC(CO)C(O)C(O)C1O)C(O)CO (stereo not drawn) [Maltitol]
7.44 min | OCC1OC(OC2C(CO)OC(OC3C(CO)OC(O)C(O)C3O)C(O)C2O)C(O)C(O)C1O (stereo not drawn) [Maltotriose]
0.429 min | CC(=O)C1(O)CCC2C3CC(C)C4=CC(=O)CCC4(C)C3CCC21C (stereo not drawn) [Medroxyprogesterone]
0.437 min | Cc1cccc(Nc2ccccc2C(=O)O)c1C [Mefenamic acid]

LC retention time | Structure (SMILES)
0.468 min | COc1ccc2[nH]cc(CCNC(C)=O)c2c1 [Melatonin]
7.08 min | OCC1OC(OCC2OC(O)C(O)C(O)C2O)C(O)C(O)C1O (stereo not drawn) [Melibiose]
0.416 min | Cc1cnc(NC(=O)C2=C(O)c3ccccc3S(=O)(=O)N2C)s1 [Meloxicam]
1.94 min | CC12CC3CC(C)(C1)CC(N)(C3)C2 [Memantine]
3.67 min | CN(C)C(=N)N=C(N)N [Metformin]
0.431 min | COC(=O)Cc1c[nH]c2ccccc12 [Methyl 3-indolyacetate]
0.625 min | COC(=O)c1cccnc1 [Methyl nicotinate]
0.415 min | COC(=O)Cc1ccc(C(C)(C)C)cc1 [Methyl p-tert-butylphenylacetate]
0.562 min | COC(=O)CCCC(=O)O [Monomethyl glutarate]
8.5 min | CC(=O)NCCCNCCCCNCCCN [N1-Acetylspermine]
7.25 min | CC(=O)NCCCCNCCCN [N8-Acetylspermidine]
0.564 min | CNC(=O)c1cccnc1 [N'-Methylnicotinamide]
5.8 min | CN(C)CC(=O)O [N,N-Dimethylglycine]
1.25 min | O=C(O)CNC(=O)CCc1ccccc1 [N-(3-Phenylpropionyl)glycine]
4.61 min | CC(=O)NCCCCCN [N-(5-Aminopentyl)acetamide]
0.492 min | CC(=O)NCCc1c[nH]c2ccc(O)cc12 [N-Acetyl-5-hydroxytryptamine]
4.98 min | CC(=O)N1CCC[C@H]1C(=O)O [N-Acetyl-L-Proline]
4.36 min | CC(=O)N[C@@H](C)C(=O)O [N-Acetyl-L-alanine]
6.21 min | CC(=O)N[C@@H](CCCN=C(N)N)C(=O)O [N-Acetyl-L-arginine]
3.49 min | CC(=O)N[C@@H](CS)C(=O)O [N-Acetyl-L-cysteine]
1.18 min | CC(=O)N[C@@H](CC(C)C)C(=O)O [N-Acetyl-L-leucine]
1.97 min | CSCC[C@H](NC(C)=O)C(=O)O [N-Acetyl-L-methionine]
6.58 min | CC(=O)N[C@@H](CCCN)C(=O)O [N-Acetyl-L-ornithine]
1.32 min | CC(=O)N[C@@H](Cc1ccccc1)C(=O)O [N-Acetyl-L-phenylalanine]

LC retention time | Structure (SMILES)
2.85 min | CC(=O)N[C@@H](Cc1ccc(O)cc1)C(=O)O [N-Acetyl-L-tyrosine]
5.85 min | CC(=O)NC(CCC(=O)O)C(=O)O (stereo not drawn) [N-Acetylglutamic acid]
5.64 min | CC(=O)NCC(=O)O [N-Acetylglycine]
6.84 min | CC(=O)NC1C(O)CC(O)(C(=O)O)OC1C(O)C(O)CO (stereo not drawn) [N-Acetylneuraminic acid]
2.34 min | CSCC[C@H](NC=O)C(=O)O [N-Formyl-L-methionine]
1.63 min | CC(C)CC(=O)NCC(=O)O [N-Iso valerylglycine]
7.02 min | CN[C@H](CC(=O)O)C(=O)O [N-Methyl-D-aspartic acid]
6.54 min | CN[C@@H](CCC(=O)O)C(=O)O [N-Methyl-L-glutamic acid]
1.97 min | CC=C(C)C(=O)NCC(=O)O [N-Tiglylglycine]
5.85 min | CC(=O)NC(CCC(N)=O)C(=O)O [N-alpha-Acetyl-L-glutamine]
6.17 min | CC(=O)NC(CCCCN)C(=O)O [N-alpha-Acetyl-L-lysine]
7.5 min | NC(=O)C1=CN(C2OC(COP(=O)(O)OP(=O)(O)OCC3OC(n4cnc5c(N)ncnc54)C(O)C3O)C(O)C2O)C=CC1 (stereo not drawn) [NADH]
8.7 min | NC(=O)c1ccc[n+](C2OC(COP(=O)(O)OP(=O)([O-])OCC3OC(n4cnc5c(N)ncnc54)C(OP(=O)(O)O)C3O)C(O)C2O)c1 (stereo not drawn) [NADP]
7.82 min | NC(=O)c1ccc[n+](C2OC(COP(=O)(O)OP(=O)([O-])OCC3OC(n4cnc5c(N)ncnc54)C(O)C3O)C(O)C2O)c1 (stereo not drawn) [NAD]
3.67 min | CC1OC(OC2C(Oc3cc(O)c4c(c3)OC(c3ccc(O)cc3)CC4=O)OC(CO)C(O)C2O)C(O)C(O)C1O (stereo not drawn) [Naringin]
0.596 min | Cc1ccnc2c1NC(=O)c1cccnc1N2C1CC1 [Nevirapine]
0.678 min | NC(=O)c1cccnc1 [Niacinamide]
0.714 min | COC(=O)C1=C(C)NC(C)=C(C(=O)OCCN(C)Cc2ccccc2)C1c1cccc([N+](=O)[O-])c1 (stereo not drawn) [Nicardipine]
2.44 min | O=C(O)c1cccnc1 [Nicotinic acid]
0.418 min | COC(=O)C1=C(C)NC(C)=C(C(=O)OC)C1c1ccccc1[N+](=O)[O-] [Nifedipine]
3.03 min | CNC(=C[N+](=O)[O-])NCCSCc1csc(CN(C)C)n1 [Nizatidine]
5.88 min | CC(=O)O[C@H](CC(=O)[O-])C[N+](C)(C)C [O-Acetyl-L-carnitine]
7.28 min | NCCOP(=O)(O)O [O-Phosphorylethanolamine]

Structure (SMILES) | LC retention time
COc1ccc(OC)c(C(O)C(C)N)c1 (stereo not drawn) [Methoxamine] | 2.4 min
CNCCc1ccc(O)cc1 [N-Methyltyramine] | 2.53 min
O=C(O)CNC(=O)c1cccnc1 [Nicotinuric acid] | 5.19 min
